How the values were obtained:
[1] = test system: Sprague Dawley rats in the FST; assay: Forced swimming test (FST); type: in vivo, rat; conditions: 10 mg/kg subcutaneously, 24, 5, 1 h before testing
Description: (A) 3-methoxy-PREG (43B) decreased rat immobility in the FST showing antidepressant activity. Results are expressed as mean±SEM (n=6-14). One-way ANOVA: Treatment (F5, 46: 4.30 P<0.01). ***P<0.001, *P<0.05 vs. water and sesame oil (Fisher LSD test). […] Results are expressed as mean±SEM (n=6-14). One-way ANOVA: Treatment (F5, 46: 3.57 P<0.01). **P<0.01, *P<0.05 vs. water and sesame oil (Fisher LSD test). […] One-way ANOVA: Treatment (F5, 46: 3.57 P<0.01). **P<0.01, *P<0.05 vs. water and sesame oil (Fisher LSD test).
Drugs were administered following the traditional dosing regimen used in the FST consisting of three injections: 24, 5, 1 h before testing.
The FST is currently the most widely used animal model for assessing depression related behavior and antidepressant drug activity in rodents (Cryan et al., Neubiorev. 2005). Rats are placed in an inescapable cylinder of water where they develop an immobile posture believed to reflect a “depressive”-like state. The time rats spend immobile is decreased by drugs exerting antidepressant activity.
Additional behaviors can be detected in the FST; namely, climbing and swimming. It has been shown that swimming behavior is sensitive to SSRIs such as fluoxetine whereas climbing is sensitive to norepinephrine re-uptake inhibitors (NRI) such as desipramine.

[2] = biological target: ERβ (Homo sapiens, UniProt Q92731); assay: Radioligand binding assay, ERβ; conditions: MAP4343 10 μM; 0.5 nM [^3H] Estradiol; Human recombinant Sf9 cells
ERβ, sequence (Q92731 whole entry): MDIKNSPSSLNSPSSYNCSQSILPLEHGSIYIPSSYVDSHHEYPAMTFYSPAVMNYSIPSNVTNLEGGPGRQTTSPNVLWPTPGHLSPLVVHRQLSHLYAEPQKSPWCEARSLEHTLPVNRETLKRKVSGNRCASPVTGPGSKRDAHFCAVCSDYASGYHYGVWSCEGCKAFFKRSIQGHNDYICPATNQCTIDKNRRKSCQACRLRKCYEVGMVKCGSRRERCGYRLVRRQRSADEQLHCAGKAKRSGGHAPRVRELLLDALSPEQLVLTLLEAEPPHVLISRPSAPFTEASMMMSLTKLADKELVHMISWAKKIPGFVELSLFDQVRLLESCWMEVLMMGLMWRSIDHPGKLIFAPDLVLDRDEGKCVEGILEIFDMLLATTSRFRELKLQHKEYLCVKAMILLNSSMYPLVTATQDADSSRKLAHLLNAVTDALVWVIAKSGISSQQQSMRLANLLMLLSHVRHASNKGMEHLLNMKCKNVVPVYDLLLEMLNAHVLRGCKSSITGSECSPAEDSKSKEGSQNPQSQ
Procedure: Binding affinity of 3-methoxy-PREG (MAP4343) for receptors of steroid hormones was evaluated using radioligand binding assays.

[3] = test system: GAP43; assay: Western blot of GAP43 in cortex and hippocampus after CCI; type: in vivo, rat; conditions: first injection 2 h post-trauma, day 35, injured cortex (20 mg/kg only), hippocampus and non-injured cortex (both doses)
Procedure: FIG. 23: GAP43 expression, 35 days after TBI, in the left-uninjured and right-injured hemispheres (A: cortex and B: hippocampus) of CCI-injured animals, receiving either vehicle (D0) or MAP4343 (D1: 10 mg/kg and D2: 20 mg/kg), 2 h after injury.
Samples were analyzed by Western-blot at day 35 post-trauma (D35) to evaluate the effects of MAP4343 on: MAP2 (the target of MAP4343 and a modulator of microtubule function), the post-synaptic markers PSD95 and spinophilin, the pre-synaptic marker synaptophysin, and the axonal growth/integrity marker GAP43.
Western blot was performed on cortex and hippocampus of TBI-injured animals receiving the first injection of MAP4343 (at 10 mg/kg or 20 mg/kg) or vehicle (sesame oil) 2 h after injury.
The expression level of various neuronal brain markers of plasticity was measured at day 35 post-trauma by western-blots in the cortex and hippocampus of left uninjured and right injured cerebral hemispheres of CCI traumatized animals receiving either vehicle (sesame oil, CCI-D0) or 3-methoxy-PREG (MAP4343) at 10 mg/kg (CCI-D1) or 20 mg/kg (CCI-D2), with first MAP4343 injection 2 h post-trauma.

[4] = test system: GFAP; assay: GFAP immunostaining after Lateral Fluid Percussion (LFP); type: in vivo, rat; conditions: first injection 2 hours post-trauma, day 35, no statistical analysis
Procedure: FIG. 24: Quantification of GFAP immunostaining in LFP-injured animals. (A) GFAP immunostaining in injured cortex of LFP-injured animals injected with vehicle (sesame oil), or 3-methoxy-PREG (MAP4343) at 10 mg/kg or 20 mg/kg, with first injection at 2 hours post-trauma. (B) GFAP immunostaining in injured and uninjured thalamus of LFP-injured animals injected with vehicle (sesame oil), or 3-methoxy-PREG (MAP4343) at 10 mg/kg or 20 mg/kg, with first injection at 2 hours post-trauma. No statistical analysis has been performed.
After anesthesia induction, the animal was placed on a stereotaxic frame. […]
Trauma was induced by a fluid percussion device (Custom Design and Manufacturing, United Kingdom) (Besson et al., 2003): it is a cylindrical tank (60 cm long), with a piston on one side, over which a hammer exercises a constraint, and a male Luer-Lock on the other side. […] The amplitude of each shock wave was measured via a pressure transducer connected to the terminal portion of the device. The pressure signal was recorded on an oscilloscope. […]
After mounting on Superfrost slides, frozen sections were dried for 90 minutes at room temperature and stored at −80° C. until use. […] Immunostaining was quantitatively assessed by optical density measurements directly from the section image (Image J). […]

CO[C@H]1CC[C@@]2(C)C(=CC[C@H]3[C@@H]4CC[C@H](C(C)=O)[C@@]4(C)CC[C@@H]32)C1 [3-methoxy-PREG, 3β-methoxy-pregna-5-ene-20-one]
rat climbing behavior in the FST [1]: not changed
rat immobility in the FST [1]: significantly decreased
rat swimming in the FST [1]: significantly increased
% inhibition of specific binding [2]: < 25%
GAP-43 expression [3]: increased GAP-43 expression
astrocytes GFAP immunoreactivity in the injured cortex ([4]; 10 mg/kg or 20 mg/kg): highly decreased
astrocytes immunoreactivity (GFAP) in the injured thalamus ([4]; especially Dose2 (20 mg/kg)): strongly decreases astrocytes immunoreactivity
